Tests used:
[1] = system: osteoclasts differentiated from human bone marrow CD34+ cells; test: Differentiated osteoclast activity, OsteoLyse Assay Kit (Human Collagen) (FIGS. 18, 19); assay type: cell-based; details: added on day 15, supernatant sampled on day 17
Experimental: The human bone marrow CD34+ cells (Biowhittaker catalog number 2M-101 A, 3×10^5 cells/vial) were induced to differentiate into osteoclasts under the experimental conditions described here. On Day 1, CD34+ cells were thawed from one frozen vial into 10 ml of media (Alpha MEM with 10% FCS, 1×Pen Strep and 1×fungizone) The cells were washed once and re-suspended in 2 ml of media and plate into onto the OsteoLyse plate (OsteoLyse™ Assay Kit (Human Collagen), Cambrex) at 100 ul per well. On day 2, without removing the original media, add to each well 50 ul of 4×CSF-1 to 30 ng/ml final concentration and 50 ul of 4×RANKL (sRANKL, Chemicon catalog #GF091, 10 ug/package) to final concentration of 100 ng/ml. On day 7, add to each well 50 ul of 5×RANKL to final concentration of 100 ng/ml. On day 15, antibodies (either Chir-RX1 or control antibody) or Zometa were added at the indicated concentrations. On day 17, 10 ul of supernatant of the cell culture was sampled and mixed with 200 μl of Fluorophore Releasing Reagent in each well of the black 96-well assay plate (included in the OsteoLyse Assay Kit).

MDA-MB-231Luc cells = test: Combination study: intratibial MDA-MB-231Luc cells in Nu/Nu mice, Faxitron x-ray osteolysis scoring (FIGS. 15-17); assay type: in vivo
Experimental: Two weeks after intratibial inoculation of 6×10^5 MDA-MB-231Luc cells, Nu/Nu mice were treated with 5A1/5B4 (10 mg/kg once weekly), Zometa (0.03 mg/kg twice weekly) or both antibody and bisphosphonate. Bone lesions were monitored weekly by Faxitron analysis (x-ray technology), and at the end of the study, all animals were subjected to a final x-ray, and the images collected and distributed for scoring of the severity of lesions.
Mean osteolysis scores were calculated from 1) an average of scores from 3 separate volunteer scorers and 2) a group average (originally 10 animals/group).
Osteolysis score based on x-ray image in last day of study:
(§1) 1=Equivocal or minimal lesion with normal cortex architecture;
(§2) 2=Definite lytic lesion with minimal cortex/architecture disruption
(§3) 3=Large lesion(s) with cortex/Architecture disruption
(§4) 4=Gross destruction with no preserved architecture

[2] = system: osteolytic damage caused by tumor growth at the bony site; test: Zometa dose-response study, osteolysis caused by tumor growth at the bony site (x-ray osteolysis score, FIG. 14); assay type: in vivo, mice
Source text: This Example establishes the dose-dependent, anti-resorptive effects of Zometa (zoledronate) in an animal model (FIG. 14). […] Osteolysis score based on x-ray image in last-day of study (FIG. 14):
as §1, §2, §3, §4

[3] = system: M-CSF biological activity; details: cited from earlier work
MCSF-R = details: cited from earlier work

Molecule | differentiated osteoclast activity [1] | osteolytic damage caused by tumor growth at the bony site (mean osteolysis scores, FIG. 16) (MDA-MB-231Luc cells; 0.03 mg/kg Zometa, 10 mg/kg anti-MCSF antibody, combination regimen, last day of study) | treating osteolysis (single agents) (MDA-MB-231Luc cells; antibody 10 mg/kg once weekly, Zometa 0.03 mg/kg twice weekly, treatment from two weeks after inoculation) | severity of lesions in representative faxitron images (FIG. 17) (MDA-MB-231Luc cells; compared to untreated animals) | dose response of anti-resorptive effect ([2]; mice treated with increasing concentrations of Zometa) | osteolytic damage caused by tumor growth at the bony site (osteolysis score based on x-ray image) ([2]; ≧0.03 mg/kg Zometa, last day of study, FIG. 14) | biological activity, lower than native M-CSF [3] | receptor-binding activity (MCSF-R)
O=P(O)(O)C(O)(Cn1ccnc1)P(=O)(O)O [Zometa, zoledronate] | inhibits differentiated osteoclast activity in a dose-dependent manner | inhibited the osteolytic damage | effective in treating osteolysis | relatively minor lesions | a dose response effect was observed | inhibited the osteolytic damage |  | 
M-CSF (Q20A, V78K): double mutant of M-CSF testing solvent accessible residues in the central portion of helices A and C (protein, UniProt P09603 33-554, looked up, variant Q20A V78K) Macrophage colony-stimulating …: EEVSEYCSHMIGSGHLQSLARLIDSQMETSCQITFEFVDQEQLKDPVCYLKKAFLLVQDIMEDTMRFRDNTPNAIAIKQLQELSLRLKSCFTKDYEEHDKACVRTFYETPLQLLEKVKNVFNETKNLLDKDWNIFSKNCNNSFAECSSQDVVTKPDCNCLYPKAIPSSDPASVSPHQPLAPSMAPVAGLTWEDSEGTEGSSLLPGEQPLHTVDPGSAKQRPPRSTCQSFEPPETPVVKDSTIGGSPQPRPSVGAFNPGMEDILDSAMGTNWVPEEASGEASEIPVPQGTELSPSRPGGGSMQTEPARPSNFLSASSPLPASAKGQQPADVTGTALPRVGPVRPTGQDWNHTPQKTDHPSALLRDPPEPGSPRISSLRPQGLSNPSTLSAQPQLSRSHSSGSVLPLGELEGRRSTRDRRSPAEPEGGPASEGAARPLPRFNSVPLTDTGHERQSEGSFSPQLQESVFHLLVPSVILVLLAVGGLLFYRWRRRSHQEPQRADSPLEQPEGSPLTQDDRQVELPV |  |  |  |  |  |  | 8-10 fold | correspondingly lower

Source: patent publication US20090246208A1, “METHODS FOR PREVENTING AND TREATING CANCER METASTASIS AND BONE LOSS ASSOCIATED WITH CANCER METASTASIS” (Novartis AG, priority 2006, published 2009)
